Where two headings read alike, the source gives them in different places.
What was measured:
Caco-2 cells = assay: Proliferation assay Caco-2 (Method 3); assay type: cell-based, human; conditions: Caco-2, 4 days, crystal violet, read-out: Inhibition of Caco-2 cell proliferation IC50
Procedure: (§1) Cultivated tumour cells (HeLa, human cervical tumour cells, ATCC CCL-2; NCI-H460, human non-small cell lung carcinoma cells, ATCC HTB-177; A2780, human ovarian carcinoma cells, ECACC #93112519; DU 145, hormone-independent human prostate carcinoma cells, ATCC HTB-81; HeLa-MaTu-ADR, multidrug-resistant human cervical carcinoma cells, EPO-GmbH Berlin; Caco-2, human colorectal carcinoma cells, ATCC HTB-37; B16F10, mouse melanoma cells, ATCC CRL-6475) were plated at a density of 5,000 cells/well (DU145, HeLa-MaTu-ADR), 3,000 cells/well (NCI-H460, HeLa), 2,500 cells/well (A2780), 1,500 cells/well (Caco-2), or 1,000 cells/well (B16F10) in a 96-well multititer plate in 200 μL of their respective growth medium supplemented 10% fetal calf serum. After 24 hours, the cells of one plate (zero-point plate) were stained with crystal violet (see below), while the medium of the other plates was replaced by fresh culture medium (200 μl), to which the test substances were added in various concentrations (0 μM, as well as in the range of 0.001-10 μM; the final concentration of the solvent dimethyl sulfoxide was 0.5%). The cells were incubated for 4 days in the presence of test substances. Cell proliferation was determined by staining the cells with crystal violet: the cells were fixed by adding 20 μl/measuring point of an 11% glutaric aldehyde solution for 15 minutes at room temperature. After three washing cycles of the fixed cells with water, the plates were dried at room temperature. The cells were stained by adding 100 μl/measuring point of a 0.1% crystal violet solution (pH 3.0). After three washing cycles of the stained cells with water, the plates were dried at room temperature. The dye was dissolved by adding 100 μl/measuring point of a 10% acetic acid solution. The extinction was determined by photometry at a wavelength of 595 nm. The change of cell number, in percent, was calculated by normalization of the measured values to the extinction values of the zero-point plate (=0%) and the extinction of the untreated (0 μm) cells (=100%). The IC50 values (inhibitory concentration at 50% of maximal effect) were determined by means of a 4 parameter fit.

DU145 cells = assay: Proliferation assay DU145 (Method 3); assay type: cell-based, human; conditions: DU145, 4 days, crystal violet, read-out: Inhibition of DU145 cell proliferation IC50
Procedure: as §1

CDK2/CycE = biological target: T1, CDK2/CycE (Homo sapiens, UniProt P24941); assay: CDK2/CycE high ATP kinase assay (Method 2b, TR-FRET); assay type: biochemical; conditions: 2 mM ATP
T1 construct: GST; purchased ProQinase GmbH (Freiburg, Germany); host or cells: insect cells (Sf9)
Procedure: 2b. CDK2/CycE High ATP Kinase Assay:
CDK2/CycE-Inhibitory Activity of Compounds of the Present Invention at 2 mM Adenosine-Tri-Phosphate (ATP) was Quantified Employing the CDK2/CycE TR-FRET (TR-FRET=Time Resolved Fluorescence Energy Transfer) Assay as Described in the Following Paragraphs.
Recombinant fusion proteins of GST and human CDK2 and of GST and human CycE, expressed in insect cells (Sf9) and purified by Glutathion-Sepharose affinity chromatography, were purchase from ProQinase GmbH (Freiburg, Germany). As substrate for the kinase reaction biotinylated peptide biotin-Ttds-YISPLKSPYKISEG (C-terminus in amid form) was used which can be purchased e.g. form the company JERINI peptide technologies (Berlin, Germany).
For the assay 50 nl of a 100 fold concentrated solution of the test compound in DMSO was pipetted into a black low volume 384 well microtiter plate (Greiner Bio-One, Frickenhausen, Germany), 2 yl of a solution of CDK2/CycE in aqueous assay buffer [50 mM Tris/HCl pH 8.0, 10 mM MgCl2, 1.0 mM dithiothreitol, 0.1 mM sodium ortho-vanadate, 0.01% (v/v) Nonidet-P40 (Sigma)] were added and the mixture was incubated for 15 min at 22° C. to allow pre-binding of the test compounds to the enzyme before the start of the kinase reaction. […] The concentration of CDK2/CycE was adjusted depending of the activity of the enzyme lot and was chosen appropriate to have the assay in the linear range, typical concentrations were in the range of 15 ng/ml. The reaction was stopped by the addition of 5 yl of a solution of TR-FRET detection reagents (0.2 μM streptavidine-XL665 [Cisbio Bioassays, Codolet, France] and 1 nM anti-RB(pSer807/pSer811)-antibody from BD Pharmingen [#558389] and 1.2 nM LANCE EU-W1024 labeled anti-mouse IgG antibody [Perkin-Elmer, product no. AD0077, as an alternative a Terbium-cryptate-labeled anti-mouse IgG antibody from Cisbio Bioassays can be used]) in an aqueous EDTA-solution (100 mM EDTA, 0.2% (w/v) bovine serum albumin in 100 mM HEPES/NaOH pH 7.0).
The resulting mixture was incubated 1 h at 22° C. to allow the formation of complex between the phosphorylated biotinylated peptide and the detection reagents. Subsequently the amount of phosphorylated substrate was evaluated by measurement of the resonance energy transfer from the Eu-chelate to the streptavidine-XL. Therefore, the fluorescence emissions at 620 nm and 665 nm after excitation at 350 nm were measured in a TR-FRET reader, e.g. a Rubystar (BMG Labtechnologies, Offenburg, Germany) or a Viewlux (Perkin-Elmer). The ratio of the emissions at 665 nm and at […] was taken as the measure for the amount of phosphorylated substrate. The data were normalised (enzyme reaction without inhibitor=0% inhibition, all other assay components but no enzyme=100% inhibition).

HeLa cells = assay: Proliferation assay HeLa (Method 3); assay type: cell-based, human; conditions: 4 days, crystal violet, read-out: Inhibition of HeLa cell proliferation IC50
Procedure: as §1

Compound | IC50 (Caco-2 cells; Homo sapiens, Caco-2, 96 h) [nM] | IC50 (DU145 cells; Homo sapiens, DU-145, 96 h) [nM] | IC50 (CDK2/CycE) [nM] | IC50 (HeLa cells; Homo sapiens, 96 h) [nM] | IC50 (Caco-2 cells) [nM] | IC50 (DU145 cells) [nM] | IC50 (HeLa cells) [nM]
CS(=O)(Cc1cccc(Nc2ncc(F)c(-c3ccc(F)c4ccoc34)n2)c1)=NC#N (racemic) [Example 1, (rac)-[(3-{[5-Fluoro-4-(4-fluoro-1-benzofuran-7-yl)pyrimidin-2-yl]amino}benzyl)(methyl)oxido-λ^6-sulfanylidene]cyanamide] | 110 | 112 | 560 | 104 | – | – | –
CS(=N)(=O)Cc1cccc(Nc2ncc(F)c(-c3ccc(F)c4ccoc34)n2)c1 (racemic) [Example 4, (rac)-5-Fluoro-4-(4-fluoro-1-benzofuran-7-yl)-N-{3-[(S-methylsulfonimidoyl)-methyl]phenyl}-pyrimidin-2-amine] | 141 | 169 | 510 | 297 | – | – | –
CS(=O)(Cc1cc(F)cc(Nc2ncc(F)c(-c3ccc(F)c4ccoc34)n2)c1)=NC#N (racemic) [Example 7, (rac)-[(3-Fluoro-5-{[5-fluoro-4-(4-fluoro-1-benzofuran-7-yl)pyrimidin-2-yl]amino}benzyl)(methyl)-oxido-λ^6-sulfanylidene]cyanamide] | 75 | 51 | 652 | 50 | – | – | –
CS(=N)(=O)Cc1cc(F)cc(Nc2ncc(F)c(-c3ccc(F)c4ccoc34)n2)c1 (racemic) [Example 10, (rac)-5-Fluoro-4-(4-fluoro-1-benzofuran-7-yl)-N-{3-fluoro-5-[(S-methylsulfonimidoyl)-methyl]-phenyl}-pyrimidin-2-amine] | 104 | 72 | 1800 | 97 | – | – | –
Cc1cc(CS(C)(=O)=NC#N)cc(Nc2ncc(F)c(-c3ccc(F)c4ccoc34)n2)c1 (racemic) [Example 13, (rac)-[(3-{[5-Fluoro-4-(4-fluoro-1-benzofuran-7-yl)pyrimidin-2-yl]amino}-5-methylbenzyl)-(methyl)oxido-λ^6-sulfanylidene]cyanamide] | 40 | 86 | 1200 | 40 | – | – | –
CS(=O)(Cc1cccc(Nc2ncc(F)c(-c3ccc(F)c4ccoc34)n2)c1)=NC#N (single isomer, unassigned) [Example 2, [(3-{[5-Fluoro-4-(4-fluoro-1-benzofuran-7-yl)pyrimidin-2-yl]amino}benzyl)(methyl)oxido-λ^6-sulfanylidene]cyanamide] | – | – | 353 | – | 87 | 54 | 100
CS(=N)(=O)Cc1cccc(Nc2ncc(F)c(-c3ccc(F)c4ccoc34)n2)c1 (single isomer, unassigned) [Example 5, 5-Fluoro-4-(4-fluoro-1-benzofuran-7-yl)-N-{3-[(S-methylsulfonimidoyl)-methyl]-phenyl}-pyrimidin-2-amine] | – | 186 | 802 | 177 | 230 | – | –
CS(=N)(=O)Cc1cccc(Nc2ncc(F)c(-c3ccc(F)c4ccoc34)n2)c1 (single isomer, unassigned) [Example 6, 5-Fluoro-4-(4-fluoro-1-benzofuran-7-yl)-N-{3-[(S-methylsulfonimidoyl)-methyl]-phenyl}-pyrimidin-2-amine] | – | – | 1000 | – | 112 | 110 | 115

The remaining compounds from weak to strong by IC50 (CDK2/CycE), led by results:

IC50 (Caco-2 cells; Homo sapiens, Caco-2, 96 h) [nM] | IC50 (DU145 cells; Homo sapiens, DU-145, 96 h) [nM] | IC50 (CDK2/CycE) [nM] | IC50 (HeLa cells; Homo sapiens, 96 h) [nM] | IC50 (Caco-2 cells) [nM] | IC50 (DU145 cells) [nM] | IC50 (HeLa cells) [nM] | Compound
– | – | 2230 | – | 54 | 34 | 31 | CS(=O)(Cc1cc(F)cc(Nc2ncc(F)c(-c3ccc(F)c4ccoc34)n2)c1)=NC#N (single isomer, unassigned) [Example 9, [(3-Fluoro-5-{[5-fluoro-4-(4-fluoro-1-benzofuran-7-yl)pyrimidin-2-yl]amino}benzyl)(methyl)-oxido-λ^6-sulfanylidene]cyanamide]
152 | 141 | 1540 | 101 | – | – | – | CS(=N)(=O)Cc1cc(Nc2ncc(F)c(-c3ccc(F)c4ccoc34)n2)cc(S(F)(F)(F)(F)F)c1 (racemic) [Example 18, (rac)-5-Fluoro-4-(4-fluoro-1-benzofuran-7-yl)-N-{3-[(S-methylsulfonimidoyl)methyl]-5-(pentafluoro-λ^6-sulfanyl)phenyl}pyrimidin-2-amine]
111 | 94 | 1460 | 99 | – | – | – | CS(=O)(Cc1cc(Nc2ncc(F)c(-c3ccc(F)c4ccoc34)n2)cc(S(F)(F)(F)(F)F)c1)=NC#N (racemic) [Example 17, (rac)-{[3-{[5-fluoro-4-(4-fluoro-1-benzofuran-7-yl)pyrimidin-2-yl]amino}-5-(pentafluoro-λ^6-sulfanyl)benzyl](methyl)oxido-λ^6-sulfanylidene}cyanamide]
43 | 34 | 812 | – | – | – | 89 | CS(=O)(Cc1cc(F)cc(Nc2ncc(F)c(-c3ccc(F)c4ccoc34)n2)c1)=NC#N (single isomer, unassigned) [Example 8, [(3-Fluoro-5-{[5-fluoro-4-(4-fluoro-1-benzofuran-7-yl)pyrimidin-2-yl]amino}benzyl)(methyl)-oxido-λ^6-sulfanylidene]cyanamide]
60 | 106 | 491 | 46 | – | – | – | Cc1cc(CS(C)(=N)=O)cc(Nc2ncc(F)c(-c3ccc(F)c4ccoc34)n2)c1 (racemic) [Example 16, (rac)-5-Fluoro-4-(4-fluoro-1-benzofuran-7-yl)-N-{3-methyl-5-[(S-methylsulfonimidoyl)-methyl]phenyl}pyrimidin-2-amine]
144 | 105 | 475 | 109 | – | – | – | CS(=O)(Cc1cccc(Nc2ncc(F)c(-c3ccc(F)c4ccoc34)n2)c1)=NC#N (single isomer, unassigned) [Example 3, [(3-{[5-Fluoro-4-(4-fluoro-1-benzofuran-7-yl)pyrimidin-2-yl]amino}benzyl)(methyl)oxido-λ^6-sulfanylidene]cyanamide]
